Experimental data published in patent US20170102375A1, “METHODS FOR DETERMINING THE EFFECTS OF COMPOUNDS ON JAK/STAT ACTIVITY” (Nodality, Inc., priority 2009, published 2017).
Read-outs that look alike come from different tables or passages of the source.

Experiments:
p-STAT5 in T cells = assay: multiparameter phosphoflow, p-STAT5 in T cells gated from 90% whole blood; format: cell-based
Description: A dose series of treatments is performed for each compound, ranging from doses as low as no compound, up to doses in the ranges of 1×10° nM, 1×10^1 nM, 1×10^2 nM, 1×10^3 nM, and 1×10^4 nM. Cell signaling is measured by multiparametric phosphoflow cytometry to assess p-Stat3, pERK, and p-Stat5 levels. The samples are gated on cell populations. This method may be used, for example, to measure JAK/STAT signaling activity in gated T cells based on levels p-Stat5 (See FIG. 12). The relationship between dosing and signaling activity can be used to calculate the IC50 for each compound (See, e.g. FIG. 12).

[1] = test system: IL-27-induced p-Stat readout; assay: IL-27-induced JAK/STAT signaling in AML patient cells, phosphoflow p-Stat1, p-Stat3, p-Stat5; format: cell-based, human
Description: (§1) Cells from three patients were stimulated with the cytokines IL-27 and G-CSF to determine whether these modulators could induce JAK/STAT pathway activation across cells from different AML patient donors. IL-27 has been reported to signal through JAK1, JAK2, and Tyk2, leading to the phosphorylation of Stat1, Stat3, and Stat5. G-CSF has been reported to signal through JAK2 and Tyk2 and leads to the phosphorylation of Stat3. […] One hour after incubation, the cells were stimulated with IL-27 and G-CSF. After stimulation cell signaling was measured by multiparametric phosphoflow cytometry to assess p-Stat1, p-Stat3 and p-Stat5 levels.
(§2) The samples were gated on cell populations. Incubation with fluorochrome-conjugated monoclonal antibodies that recognize lineage specific epitopes on the cell surface delineated at least 3 cell subpopulations in patient samples. […] Three cell subsets were examined: (1) CD34−/CD117med, (2) CD34+/CD117med, (3) CD34−/CD117−. “CD117” in FIG. 18 is the same as “ckit” in FIG. 19. “Med” indicates a medium amount of expression with respect to other cell subsets that express more or less CD117.

[2] = test system: G-CSF-induced p-Stat readout; assay: G-CSF-induced JAK/STAT signaling in AML patient cells, phosphoflow p-Stat1, p-Stat3, p-Stat5; format: cell-based, human
Description: as §1, §2

pAKT (S473) = assay: phosphoflow, evoked pAKT (S473) in B-cells gated from PBMC sample, IC50 from sub-sampled cells; format: cell-based; settings: repeated 100 times, read-out: log10(IC50) (converted)
Description: In some embodiments, the invention provides tools for making robust measurements of very small subpopulations of cells. […] The IC50 for […] was calculated using pAKT measurements from 3,000 cells. […] The median fluorescence index (MFI) was then computed only from these cells and used to estimate the IC50 value. This process was repeated 100 times at each sampling level to generate a list of IC50 values. If a small number of cells is sufficiently representative of the larger population, all the IC50 values are expected to be similar to each other, and therefore the 95% confidence interval will remain small. […] For samples of 40 cells and fewer, the IC50 became increasingly inconsistent. Depending on experimental conditions, such as cell type, nodes assayed, the percentage of cells that respond to the modulator, detection methods, and the strength of the signal, the minimal number of cells needed to obtain statistically relevant measurements may vary.

p-ERK in monocytes = assay: multiparameter phosphoflow, p-ERK stimulated by GM-CSF in monocytes from PBMCs; format: cell-based; settings: treated PBMCs, off-target ERK/MAPK (FIG. 16)
Description: (§3) (See FIG. 11; Table 7). […] The samples are gated on cell populations.
(§4) As shown in FIGS. 16-17, the methods of the invention can also be used to identify off-target effects of drug treatment. Muliparameter phosphoflow is used to detect the effects of compounds selected from the list in Table 8 on signaling pathways other than JAK/STAT. In FIG. 16, when PBMCs are treated with the JAK/STAT inhibitor Pyridone 6 (“Jak Inhibitor I,” Calbiochem), pERK levels are reduced in monocytes. […] Thus, the methods of the invention can identify both inhibition and induction of off-target signaling pathways, in this example, the ERK/MAPK pathway. The methods of the invention can also be used to identify off-target effects of JAK/STAT inhibitors on other pathways.

p-ERK in B cells = assay: multiparameter phosphoflow, p-ERK stimulated by CD40L in B-cells from PBMCs; format: cell-based; settings: treated PBMCs, off-target ERK/MAPK (FIG. 16)
Description: as §3, §4

pNFkB65 = assay: multiparameter phosphoflow, NFkB signaling in stimulated B cells; format: cell-based; settings: stimulated B cells (FIG. 17)
Description: as §4

CML patients = CML patients treated at the early stages of the disease; cited from earlier work

Which results are given for C[C@@H]1CCN(C(=O)CC#N)C[C@@H]1N(C)c1ncnc2[nH]ccc12 [CP-690550]?
potency in whole blood (p-STAT5 in T cells; 90% whole blood gated on T cells): retains a high potency; inhibition of IL-27-induced p-Stat readout ([1]; 333 nM, 1 h pre-incubation, cells of two AML patient donors with IL-27-induced signaling): completely; effect in cells from the third patient ([1]; AML patient cells in which IL-27 and G-CSF induced no signaling response): no effect; inhibition of basal phosphorylation levels in the p-Stat readout ([1]; AML patient cells, IL-27 experiment (FIG. 20)): no inhibition; inhibition of G-CSF-induced p-Stat readout ([2]; 3333 nM, 1 h pre-incubation, cells of two AML patient donors with G-CSF-induced signaling): completely; inhibition of basal phosphorylation levels in the p-Stat readout ([2]; AML patient cells, G-CSF experiment (FIG. 21)): no inhibition

Which IC50 (pAKT (S473); simulation: 10 cells sampled) does the source give for O=c1cc(N2CCOCC2)oc2c(-c3ccccc3)cccc12 [LY940002] here?
The IC50 was 4.79 nM.

What about the IC50 (pAKT (S473); simulation: 20 cells sampled) of the same molecule?
The IC50 was 79.4 nM.

And the IC50 (pAKT (S473); simulation: 40 cells sampled)?
The IC50 was 61.7 nM.

And the IC50 (pAKT (S473); simulation: 80 cells sampled)?
Its IC50 is 479 nM.

What about the IC50 (pAKT (S473); simulation: 160 cells sampled) of the same molecule?
Its IC50 is 479 nM.

And the IC50 (pAKT (S473); simulation: 320 cells sampled)?
Its IC50 is 490 nM.

What about the IC50 (pAKT (S473); simulation: 640 cells sampled) of the same molecule?
The IC50 was 490 nM.

What about the IC50 (pAKT (S473); simulation: 1280 cells sampled) of the same molecule?
The IC50 was 479 nM.

What about the IC50 (pAKT (S473); simulation: 2560 cells sampled) of the same molecule?
Its IC50 is 490 nM.

And the IC50 (pAKT (S473); simulation: MFI from 5 cells sampled from 3,000 cell data set)?
Its IC50 is 0.302 nM.

Which “decrease of potency in whole blood versus PBMCs” value (p-STAT5 in T cells; 90% whole blood gated on T cells vs stimulated PBMCs) does the source give for CC(C)(C)c1nc2c3cc[nH]c(=O)c3c3cc(F)ccc3c2[nH]1 [Pyridone 6] here?
Its value is 70 fold.

What about the “effect on pERK levels in monocytes” value (p-ERK in monocytes) of the same molecule?
The value was “reduced”.

And the “effect on pERK levels in B cells” value (p-ERK in B cells)?
Its value is “does not reduce”.

For CCOC(=O)c1cn(-c2c(F)c(F)c(C#N)c(F)c2F)c2c(F)c(F)c(F)cc2c1=O [Stat3 Inhibitor VII], which “effect on NFkB signaling, levels of pNFkB65” value (pNFkB65) is on record?
Its value is “inhibits NFkB signaling”.

Which results are given for CC(C)(O)/C=C/C(=O)[C@](C)(O)[C@H]1[C@H](O)C[C@@]2(C)[C@@H]3CC=C4[C@@H](C=C(O)C(=O)C4(C)C)[C@]3(C)C(=O)C[C@]12C [cucurbitacin I]?
effect on pERK levels in monocytes (p-ERK in monocytes): increased; effect on pERK levels in B cells (p-ERK in B cells): increased

With Cc1ccc(NC(=O)c2ccc(CN3CCN(C)CC3)cc2)cc1Nc1nccc(-c2cccnc2)n1 [imatinib] as the molecule, how does the “complete remission, patients” value (CML patients) read?
The value was 97%.
